{
  "source": "patent US8273713B2",
  "about": "(Amylin Pharmaceuticals, LLC, priority 2000, dated 2012)",
  "key": {"gastric emptying": {"system": "gastric emptying", "assay": "Gastric emptying in HSD rats (3H-3-O-methyl-glucose gavage)", "assay_type": "in vivo", "details": "for effect on gastric emptying: 40 minutes", "method": "Male HSD rats, 180-215 g, were housed with a 12:12 hour light:dark cycle and fasted for 20 hrs (overnight). […] At t=1 min, a solution of 1 mL sterile water containing 5 μCi of ^3H-3-O-methyl-glucose was gavaged by oropharyngeal tube to conscious rats. Blood samples (10 μl) were collected 40 min after gavage and assayed for counts per minute (CPM) in plasma. To eliminate pain during tail vein sampling, 2% Lidocaine (0.1 ml) was injected 3-4 cm from the end of the tail (Gedulin, Jodka et al. Gastroenterology 108: […], 1995). Effects of the test compound were expressed as percent change relative to control, which was calculated as -100*(1-(mean value test rats/mean value controls)). Relative activity was defined as significant if p<0.05 as determined by ANOVA. Where a significant difference existed, test means were compared to the control mean using Dunnett's test (Prism v2.01, GraphPad Software Inc., San Diego, Calif.)."}, "food intake": {"system": "food intake", "assay": "Food intake in overnight-fasted NIH/SW mice", "assay_type": "in vivo", "details": "for effect on food intake: 60 min", "method": "Female NIH/Swiss mice (8-12 weeks old) were group housed with a 12:12 hour light:dark cycle with lights on at 0600. Water and a standard pelleted mouse chow diet were available ad libitum, except as noted. Animals were fasted and housed individually starting at approximately 1500 hrs, 1 day prior to experiment. The morning of the experiment (approx. 0630 hrs), all animals were weighed and divided into experimental groups so as to give the most similar weight distribution between groups. In a typical study, n=10 for the control group and at least 5 for each treatment group. At time=0 min, all animals were given an intraperitoneal injection of vehicle or compound in a volume of 5 ml/kg and immediately given a pre-weighed amount (10-15 g) of the standard chow. […] Significant treatment effects were identified by ANOVA (p<0.05). Where a significant difference existed, test means were compared to the control mean using Dunnett's test (Prism v2.01, GraphPad Software Inc., San Diego, Calif.)."}, "[1]": {"details": "given peripherally, dose not given"}},
  "note": "Ends that are not written are not given here.",
  "data": [
    {"substance": "Ac-PYY[22-36] (Ac-ASLRHYLNLVTRQRY; ends and bridges not checked; listed as Homo sapiens)", "values": [
      {"measurement": "effect on gastric emptying", "setting": "gastric emptying; 200 μg/kg intraperitoneal", "result": "inactive"},
      {"measurement": "effect on food intake", "setting": "food intake; 200 μg/kg intraperitoneal", "result": "inactive"}
    ]},
    {"substance": "NPY[3-36]", "values": [
      {"measurement": "effect on gastric emptying", "setting": "gastric emptying; 500 μg/kg intraperitoneal", "result": "inactive"},
      {"measurement": "effect on food intake", "setting": "food intake; 100 μg/kg intraperitoneal", "result": "inactive"}
    ]},
    {"substance": "Neuropeptide Y [NPY]", "values": [
      {"measurement": "effect on gastric emptying", "setting": "gastric emptying; 500 μg/kg intraperitoneal", "result": "inactive"},
      {"measurement": "effect on gastric emptying (summary)", "setting": "gastric emptying; [1]", "result": "completely inactive"},
      {"measurement": "effect on food intake", "setting": "food intake; 100 μg/kg intraperitoneal", "result": "inactive"},
      {"measurement": "effect on food intake", "setting": "food intake; 500 μg/kg intraperitoneal", "result": "trend toward activity"},
      {"measurement": "effect on food intake (summary)", "setting": "food intake; [1]", "result": "modest decrease in food intake"}
    ]}
  ]
}
